pIC50: −log10 of the molar value.
Tests used:
human V2 receptor = biological target: T1, human V2 receptor (Homo sapiens, UniProt P30518); assay: Cellular in vitro assay for vasopressin receptor activity, V2 receptor cell line (CRE-luciferase); format: cell-based; conditions: CHO cell line transfected with human V2 receptor; [Arg8]-vasopressin at EC50 concentration; read-out: IC50 hV2
T1 construct: expressed in transfected cells; host or cells: CHO K1 (Chinese hamster ovary) expressing firefly luciferase under a CRE-responsive promoter
T1 sequence (P30518 whole entry): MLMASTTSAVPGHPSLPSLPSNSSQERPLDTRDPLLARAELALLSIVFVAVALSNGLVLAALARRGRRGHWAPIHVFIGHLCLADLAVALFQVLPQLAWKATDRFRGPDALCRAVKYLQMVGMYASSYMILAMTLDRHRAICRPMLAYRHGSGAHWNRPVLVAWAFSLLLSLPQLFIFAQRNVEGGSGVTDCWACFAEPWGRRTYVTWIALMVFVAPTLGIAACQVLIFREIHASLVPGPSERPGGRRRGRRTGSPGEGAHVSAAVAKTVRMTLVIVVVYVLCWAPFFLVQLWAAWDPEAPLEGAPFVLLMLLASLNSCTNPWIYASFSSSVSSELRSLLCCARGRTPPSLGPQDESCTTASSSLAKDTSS
Outline: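 CHO K1 cells stably expressing human V2 receptor with CRE-driven firefly luciferase, plated the day before. Test compounds at various concentrations added together with [Arg^8]-vasopressin at EC50 concentration, 3 h at 37° C, 5% CO2. Luminescence read after Triton lysis and luciferin addition; IC50 values reported.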

human V1a receptor = biological target: T2, human V1a receptor (Homo sapiens, UniProt P37288); assay: Cellular in vitro assay for vasopressin receptor activity, V1a receptor cell line (aequorin luminescence); format: cell-based; conditions: for pIC50: CHO cell line transfected with human V1a receptor, [Arg8]-vasopressin at EC50 concentration, read-out: IC50 hV1a; for ratio IC50 hV2/hV1a: selectivity ratio of the IC50 values hV2/hV1a
T2 construct: expressed in transfected cells; host or cells: CHO K1 (Chinese hamster ovary), also stably transfected with a modified aequorin
T2 sequence (P37288 whole entry): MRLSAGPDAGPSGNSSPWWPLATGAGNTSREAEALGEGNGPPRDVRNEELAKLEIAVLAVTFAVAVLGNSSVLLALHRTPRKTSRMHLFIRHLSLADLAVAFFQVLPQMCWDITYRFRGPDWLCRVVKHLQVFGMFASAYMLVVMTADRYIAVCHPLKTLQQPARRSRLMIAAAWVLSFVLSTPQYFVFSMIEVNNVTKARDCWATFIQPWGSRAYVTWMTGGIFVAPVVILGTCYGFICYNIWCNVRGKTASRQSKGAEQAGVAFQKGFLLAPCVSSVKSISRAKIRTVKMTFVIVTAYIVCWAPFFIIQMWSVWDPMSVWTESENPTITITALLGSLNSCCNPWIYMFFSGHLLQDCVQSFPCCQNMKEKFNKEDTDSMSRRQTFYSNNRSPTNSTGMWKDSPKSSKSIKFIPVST
Outline: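 Recombinant CHO K1 cells stably expressing human V1a receptor and aequorin, loaded with coelenterazine, were exposed to test compounds for 10 minutes before [Arg^8]-vasopressin at EC50 concentration. Calcium-triggered luminescence was measured immediately, giving IC50 values.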

Row | SMILES | pIC50 (human V2 receptor) | pIC50 (human V1a receptor) | ratio IC50 hV2/hV1a (human V1a receptor)
1 | CC1(CNC(=O)c2nc(Cn3nc(-c4ccc(Cl)cc4)n(C[C@H](O)C(F)(F)F)c3=O)nn2-c2ncccc2C(F)(F)F)COC1 [Example 53, 3-({3-(4-Chlorophenyl)-5-oxo-4-[(2S)-3,3,3-trifluoro-2-hydroxypropyl]-4,5-dihydro-1H-1,2,4-triazol-1-yl}methyl)-N-[(3-methyloxetan-3-yl)methyl]-1-[3-(trifluoromethyl)pyridin-2-yl]-1H1,2,4-triazole-5-carboxamide] | 7.20 | 9.19 | 98.4
2 | O=C(NCC1(O)CC1)c1nc(Cn2nc(-c3ccc(Cl)cc3)n(C[C@H](O)C(F)(F)F)c2=O)nn1-c1ncccc1C(F)(F)F [Example 55, 3-({3-(4-Chlorophenyl)-5-oxo-4-[(2S)-3,3,3-trifluoro-2-hydroxypropyl]-4,5-dihydro-1H-1,2,4-triazol-1-yl}methyl)-N-[(1-hydroxycyclopropyl)methyl]-1-[3-(trifluoromethyl)pyridin-2-yl]-1H1,2,4-triazole-5-carboxamide] | 7.14 | 8.81 | 47.2
3 | CC1(C)CN(C(=O)c2nc(Cn3nc(-c4ccc(Cl)cc4)n(C[C@H](O)C(F)(F)F)c3=O)nn2-c2ncccc2C(F)(F)F)CCO1 [Example 56, 5-(4-Chlorophenyl)-2-({5-(2,2-dimethylmorpholine-4-carbonyl)-1-[3-(trifluoromethyl)pyridin-2-yl]-1H-1,2,4-triazol-3-yl}methyl)-4-[(2S)-3,3,3-trifluoro-2-hydroxypropyl]-2,4-dihydro-3H-1,2,4-triazol-3-one] | 6.63 | 8.96 | 214.6

Further compounds by rising pIC50 (human V2 receptor), results first:

Row | pIC50 (human V2 receptor) | pIC50 (human V1a receptor) | ratio IC50 hV2/hV1a (human V1a receptor) | SMILES
4 | 6.36 | 8.56 | 160.0 | CC1(O)CCN(C(=O)c2nc(Cn3nc(-c4ccc(Cl)cc4)n(C[C@H](O)C(F)(F)F)c3=O)nn2-c2ncccc2C(F)(F)F)C1 (stereo partly drawn) [Example 57, 5-(4-Chlorophenyl)-2-({5-[(35)-3-hydroxy-3-methylpyrrolidine-1-carbonyl]-1-[3-(trifluoromethyl)pyridin-2-yl]-1H-1,2,4-triazol-3-yl}methyl)-4-[(2S)-3,3,3-trifluoro-2-hydroxypropyl]-2,4-dihydro-3H-1,2,4-triazol-3-one]
5 | 6.36 | 8.87 | 322.2 | O=C(c1nc(Cn2nc(-c3ccc(Cl)cc3)n(C[C@H](O)C(F)(F)F)c2=O)nn1-c1ncccc1C(F)(F)F)N1CC(O)(C(F)(F)F)C1 [Example 58, 5-(4-Chlorophenyl)-2-({5-[3-hydroxy-3-(trifluoromethyl)azetidine-1-carbonyl]-1-[3-(trifluoromethyl)pyridin-2-yl]-1H-1,2,4-triazol-3-yl}methyl)-4-[(2S)-3,3,3-trifluoro-2-hydroxypropyl]-2,4-dihydro-3H-1,2,4-triazol-3-one]
6 | 7.08 | 9.11 | 107.1 | O=C(NCCC(F)(F)F)c1nc(Cn2nc(-c3ccc(Cl)cc3)n(C[C@H](O)C(F)(F)F)c2=O)nn1-c1ncccc1C(F)(F)F [Example 54, 3-({3-(4-Chlorophenyl)-5-oxo-4-[(2S)-3,3,3-trifluoro-2-hydroxypropyl]-4,5-dihydro-1H-1,2,4-triazol-1-yl}methyl)-1-[3-(trifluoromethyl)pyridin-2-yl]-N-(3,3,3-trifluoropropyl)-1H-1,2,4-triazole-5-carboxamide]
